The source of these data is publication PMC10614203, “Synthesis, Structure–Activity Relationships, Radiofluorination, and Biological Evaluation of [^18F]RM365, a Novel Radioligand for Imaging the Human Cannabinoid Receptor Type 2 (CB2R) in the Brain with PET” (Journal of Medicinal Chemistry, 2023).

Like-named read-outs stand apart in the source and are kept apart here.

In this data set the target is T1, hCB2R(D80N) (Homo sapiens, UniProt P34972, D80N).
T1 construct: expressed in transfected cells; host or cells: neurons of the right striatum of male Wistar rats, transduced in vivo with the AAV2/7-CaMKII0.4-intron-hCB2R(D80N) vector
T1 sequence (P34972 whole entry D80N): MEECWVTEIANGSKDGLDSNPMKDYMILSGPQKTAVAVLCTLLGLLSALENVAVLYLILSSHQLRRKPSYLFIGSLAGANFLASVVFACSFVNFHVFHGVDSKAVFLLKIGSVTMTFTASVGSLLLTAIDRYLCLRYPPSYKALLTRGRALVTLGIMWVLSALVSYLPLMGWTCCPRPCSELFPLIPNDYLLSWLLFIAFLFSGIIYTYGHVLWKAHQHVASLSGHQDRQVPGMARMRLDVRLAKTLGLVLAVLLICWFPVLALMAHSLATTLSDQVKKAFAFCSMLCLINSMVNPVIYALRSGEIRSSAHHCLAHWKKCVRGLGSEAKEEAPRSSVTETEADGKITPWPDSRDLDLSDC
It counts as in vivo. As to conditions: for reduction of the normalized AUC between 20 and 60 min p.i.: GW405833 i.v. 20 min after radioligand. From the text:
In a proof-of-concept study, the specific binding to the human CB2R and the ability to cross the blood–brain barrier of [^18F]RM365 in vivo was investigated by PET imaging experiments using an established rat model with a local overexpression of hCB2R(D80N) in the right striatum (target region).[32],[66] Exemplary images of the averaged time frames of the PET study, as well as the TACs of the target region and both reference regions on the contralateral site and the cerebellum, are shown in Figure 10. […] However, the TAC peak value was four to five times lower in the reference regions, which was reflected by the seven to eight times lower accumulated activity over time expressed as the area under the curve (AUC) of [^18F]RM365 (Table 3). The high signal-to-background ratio is reflected by a SUVr of 15 ± 5 and 20 ± 5 for the target region-to-contralateral and -cerebellum ratios, respectively, at 60 min p.i. […] Additionally, we investigated the reversibility of the binding toward the human CB2R receptor in vivo in displacement studies by administering the CB2R-specific agonist GW405833 into the tail vein 20 min after the radioligand injection into the hCB2R(D80N)-overexpressing rat model (Figure 10B, Table 3). […] The signal in the contralateral side (p-value = 0.1621, two-way ANOVA) and in the cerebellum (p-value = 0.6177, two-way ANOVA) was not affected by the treatment over time with GW405833 (Figure S6), underlining the eligibility of these reference regions.
In vivo biodistribution studies of [^18F]RM365 were performed in female CD-1 mice (n = 4, 31 ± 3 g) and female Wistar rats (n = 4, 150 ± 11 g). For the uptake studies into the brain, male Wistar rats carrying the stereotactically injected AAV2/7-CaMKII0.4-intron-hCB2R(D80N) (right striatum) and AAV2/7-CaMKII0.4-intron-3flag-eGFP (control/contralateral, left striatum) were used (n = 6; bodyweights were 260 ± 11 g). Data were assessed by dynamic small animal PET (Nanoscan, Mediso, Budapest, Hungary) in 60 min recordings, followed by T1-weighted (GRE, TR/TE = 15.0/2.4 ms, 252/252, FA = 25°) MR imaging with whole-body coils for anatomical correlation and attenuation correction.
The PET scans were performed 3−4 months after the stereotactic injections. Animals were initially anesthetized with 5% isoflurane and placed on a thermostatically heated animal bed, where anesthesia was maintained with 2% isoflurane in 60% oxygen/38% room air. […] Nonparametric (semiquantitative) analysis of achieved time–activity curves (TACs) was performed with Microsoft Excel to determine the time to peak, the TAC peak value, and the area under the curve (AUC) [drawing 1] where c (radioactivity) is expressed as the standardized uptake value normalized to the bodyweight in g (SUV). […]

Where [1] appears, read: male, Wistar, rat, in vivo, 60 min.

For `CC1(C)Cc2ccc(C#N)cc2[C@@H]1NC(=O)c1cc2cc([18F])ccc2[nH]1` [[^18F]RM365], the “reduction of the normalized AUC between 20 and 60 min p.i.” value (cerebellum as reference region) was 70%. Also, the “reduction of the normalized AUC between 20 and 60 min p.i.” value (contralateral site as reference region) was 64%. Under setting [1], this molecule came in with an SUVr target region-to-cerebellum of 20 ± 5 and an SUVr target region-to-contralateral of 15 ± 5.
